Details: Liquid; for viscosity: Capillary tube (Ostwald / Ubbelohde) method; for mass density: Vibrating tube method

CCCCCCCC [octane]
Details	mass density [kg/m3]	viscosity [mPa·s]
293.21 K, 1996 kPa	703.76	0.5512
293.21 K, 8004 kPa	709.25	0.5874
293.21 K, 13010 kPa	713.21	0.6183
293.21 K, 30002 kPa	725.54	0.7285
293.22 K, 3994 kPa	705.71	0.5631
293.22 K, 6001 kPa	707.57	0.5752
293.22 K, 10009 kPa	710.88	0.5997
293.22 K, 16009 kPa	715.43	0.6371
293.22 K, 19011 kPa	717.57	0.6566
293.22 K, 22012 kPa	719.76	0.6759
293.22 K, 25004 kPa	721.88	0.6954
293.22 K, 28004 kPa	724.19	0.7152
313.1 K, 5999 kPa	692.07	0.4593
313.1 K, 19006 kPa	703.5	0.5234
313.1 K, 21998 kPa	706.05	0.5385
313.1 K, 25000 kPa	708.39	0.5539
313.1 K, 27998 kPa	710.67	0.5694
313.1 K, 30001 kPa	712.15	0.5798
313.11 K, 2007 kPa	688.27	0.4402
313.11 K, 4000 kPa	690.26	0.4497
313.11 K, 7997 kPa	693.85	0.469
313.11 K, 10009 kPa	695.59	0.4788
313.11 K, 13005 kPa	698.26	0.4935
313.11 K, 16009 kPa	700.84	0.5083
333 K, 22003 kPa	691.91	0.4414
333.01 K, 2005 kPa	672.19	0.3601
333.01 K, 3993 kPa	674.49	0.3681
333.01 K, 5998 kPa	676.69	0.3761
333.01 K, 8014 kPa	678.82	0.3841
333.01 K, 10007 kPa	680.8	0.3921
333.01 K, 13004 kPa	683.6	0.4043
333.01 K, 16002 kPa	686.47	0.4166
333.01 K, 19006 kPa	689.24	0.4289
333.01 K, 25006 kPa	694.49	0.4539
333.01 K, 28003 kPa	696.99	0.4666
333.01 K, 30012 kPa	698.61	0.4751
353.12 K, 2008 kPa	655.38	0.2974
353.12 K, 3999 kPa	657.99	0.3043
353.12 K, 6000 kPa	660.5	0.3112
353.12 K, 8001 kPa	663.11	0.3181
353.12 K, 10006 kPa	665.45	0.325
353.12 K, 19000 kPa	674.99	0.3563
353.12 K, 22003 kPa	677.96	0.3669
353.12 K, 25005 kPa	680.81	0.3775
353.12 K, 28008 kPa	683.56	0.3882
353.12 K, 30004 kPa	685.34	0.3954
353.13 K, 13003 kPa	668.83	0.3354
353.13 K, 16004 kPa	672.05	0.3458

CCCCCCCCCCCC [dodecane]
Details	mass density [kg/m3]	viscosity [mPa·s]
293.21 K, 2007 kPa	750.58	1.522
293.21 K, 3977 kPa	752.18	1.56
293.21 K, 5979 kPa	753.71	1.599
293.21 K, 7982 kPa	755.06	1.639
293.21 K, 12987 kPa	758.27	1.74
293.21 K, 29985 kPa	768.5	2.106
293.22 K, 9987 kPa	756.38	1.679
293.22 K, 15986 kPa	760.07	1.801
293.22 K, 18994 kPa	761.82	1.865
293.22 K, 21995 kPa	763.63	1.929
293.22 K, 24987 kPa	765.5	1.994
293.22 K, 27987 kPa	767.37	2.061
313.1 K, 1990 kPa	736.16	1.089
313.1 K, 4017 kPa	737.72	1.116
313.1 K, 6016 kPa	739.14	1.143
313.1 K, 8014 kPa	740.64	1.171
313.1 K, 10011 kPa	742.11	1.199
313.1 K, 13007 kPa	744.26	1.241
313.1 K, 16011 kPa	746.36	1.283
313.1 K, 19017 kPa	748.61	1.326
313.1 K, 22017 kPa	750.69	1.37
313.1 K, 25019 kPa	752.63	1.414
313.1 K, 28017 kPa	754.52	1.458
313.1 K, 30020 kPa	755.75	1.489
333 K, 3976 kPa	723.61	0.8436
333.01 K, 2024 kPa	721.82	0.823
333.01 K, 5981 kPa	725.32	0.8643
333.01 K, 7987 kPa	726.99	0.885
333.01 K, 10019 kPa	728.35	0.9059
333.01 K, 13016 kPa	730.73	0.9374
333.01 K, 16014 kPa	733.04	0.9691
333.01 K, 19018 kPa	735.29	1.001
333.01 K, 22015 kPa	737.46	1.033
333.01 K, 25018 kPa	739.58	1.066
333.01 K, 28015 kPa	741.65	1.099
333.01 K, 30024 kPa	742.99	1.121
353.12 K, 2000 kPa	706.86	0.6433
353.12 K, 3991 kPa	708.83	0.6598
353.12 K, 5996 kPa	710.75	0.6763
353.12 K, 8009 kPa	712.81	0.6929
353.12 K, 10014 kPa	714.63	0.7095
353.12 K, 13006 kPa	717.28	0.7344
353.12 K, 16007 kPa	719.83	0.7594
353.12 K, 19003 kPa	722.16	0.7845
353.12 K, 22006 kPa	724.55	0.8098
353.12 K, 25008 kPa	726.87	0.8352
353.12 K, 28011 kPa	729.13	0.8607
353.12 K, 30007 kPa	730.59	0.8778

CCCCCCCCC [nonane]
Details	mass density [kg/m3]	viscosity [mPa·s]
293.21 K, 1993 kPa	719.36	0.7109
293.21 K, 3991 kPa	721.16	0.7266
293.21 K, 5993 kPa	722.88	0.7426
293.21 K, 7996 kPa	724.42	0.7587
293.21 K, 10001 kPa	725.92	0.775
293.21 K, 13001 kPa	728	0.8
293.21 K, 19004 kPa	732.11	0.8517
293.21 K, 22005 kPa	734.14	0.8782
293.21 K, 24997 kPa	736.13	0.9052
293.21 K, 27997 kPa	738.31	0.9329
293.21 K, 29995 kPa	739.58	0.9516
293.22 K, 16000 kPa	730.02	0.8254
313.1 K, 19007 kPa	718.18	0.6634
313.1 K, 22007 kPa	720.52	0.6827
313.1 K, 25009 kPa	722.7	0.7023
313.1 K, 28007 kPa	724.82	0.7222
313.1 K, 30010 kPa	726.21	0.7357
313.11 K, 2000 kPa	704.08	0.559
313.11 K, 4007 kPa	705.88	0.5709
313.11 K, 6006 kPa	707.62	0.5829
313.11 K, 8004 kPa	709.24	0.595
313.11 K, 10007 kPa	710.92	0.6072
313.11 K, 13003 kPa	713.28	0.6256
313.11 K, 16007 kPa	715.76	0.6444
333 K, 2014 kPa	688.53	0.4535
333 K, 3990 kPa	690.6	0.4631
333 K, 5995 kPa	692.58	0.4727
333.01 K, 8001 kPa	694.51	0.4824
333.01 K, 10007 kPa	696.11	0.4921
333.01 K, 13004 kPa	698.84	0.5067
333.01 K, 16002 kPa	701.48	0.5215
333.01 K, 19006 kPa	704.03	0.5364
333.01 K, 22003 kPa	706.5	0.5515
333.01 K, 25006 kPa	708.9	0.5667
333.01 K, 28003 kPa	711.23	0.5821
333.01 K, 30012 kPa	712.74	0.5925
353.12 K, 2004 kPa	672.27	0.3733
353.12 K, 3995 kPa	674.59	0.3814
353.12 K, 6000 kPa	676.83	0.3894
353.12 K, 8005 kPa	679.1	0.3975
353.12 K, 10010 kPa	681.31	0.4056
353.12 K, 13002 kPa	684.37	0.4178
353.12 K, 16003 kPa	687.3	0.43
353.12 K, 18999 kPa	689.99	0.4422
353.12 K, 22002 kPa	692.72	0.4546
353.12 K, 25004 kPa	695.35	0.467
353.12 K, 28007 kPa	697.9	0.4795
353.12 K, 30003 kPa	699.56	0.4879

CCCCCCCCCC [decane]
Details	mass density [kg/m3]	viscosity [mPa·s]
303.15 K, 2001 kPa	724.01	0.8079
303.15 K, 3991 kPa	725.58	0.8268
303.15 K, 6003 kPa	727.19	0.8461
303.15 K, 8001 kPa	728.75	0.8655
303.15 K, 9992 kPa	730.27	0.885
303.15 K, 13006 kPa	732.5	0.915
303.15 K, 16005 kPa	734.69	0.9445
303.15 K, 18998 kPa	736.88	0.9734
303.15 K, 21997 kPa	739	1.004
303.15 K, 25008 kPa	741.03	1.035
303.15 K, 27989 kPa	743.02	1.066
303.15 K, 29988 kPa	744.3	1.086
323.15 K, 1995 kPa	708.76	0.6249
323.15 K, 4003 kPa	710.68	0.6386
323.15 K, 5997 kPa	712.57	0.6529
323.15 K, 8005 kPa	714.3	0.6676
323.15 K, 10006 kPa	715.96	0.6824
323.15 K, 12995 kPa	718.36	0.7045
323.15 K, 15989 kPa	720.73	0.7274
323.15 K, 18994 kPa	723	0.7511
323.15 K, 21997 kPa	725.28	0.774
323.15 K, 25006 kPa	727.5	0.7981
323.15 K, 28004 kPa	729.62	0.822
323.15 K, 30005 kPa	731.03	0.8382
353.15 K, 5998 kPa	689.96	0.4714
353.15 K, 7997 kPa	691.97	0.4825
353.15 K, 22010 kPa	704.95	0.5612
353.16 K, 2000 kPa	685.65	0.448
353.16 K, 3999 kPa	687.9	0.4596
353.16 K, 9991 kPa	694.06	0.494
353.16 K, 13003 kPa	697.01	0.5106
353.16 K, 15994 kPa	699.86	0.5272
353.16 K, 19005 kPa	702.43	0.5442
353.16 K, 25000 kPa	707.44	0.5788
353.16 K, 27992 kPa	710.01	0.5967
353.16 K, 29995 kPa	711.67	0.6086

Source: the NIST ThermoML archive (doi:10.1021/acs.jced.7b00650)
